Measurements published in patent publication US3955959A, “Herbicide for use in transplanted rice” (priority 1974, dated 1976).

Legend:
Assay type in all cases: in vivo
[1] = system: Perennials Ek and Sa (Eleocharis kuroguwai, Sagittaria aginashi); assay: Example 1 field test, perennial weed control, Iri, Korea; conditions: for % Weed Control (Perennials Ek and Sa): weed weight at 63 DAT
Description: In the field test 48 day-old seedlings (Watanabe variety) were transplanted to plots 2.5 × 6 m. seeded with the weed seeds indicated in Table 1. At 5 and 10 DAT periods, the herbicides were applied to the plants (now at the 1.2 and 2.0 leaf stage, respectively, of grass weed) at the indicated rate in kilograms per hectare (kg/ha). The weed control and rice injury results for 3 replications are reported in percentages as of the indicated times of observation. The percentages given in the "Perennials" column are based on the weight of the weeds at 63 DAT, i.e., 42 gms/3.6 m^2 for the weedy check.

[2] = system: Echinochloa crusgalli; assay: Example 2 field test, weed control, Chia Yi, Taiwan; conditions: obs. 63 DAT
Procedure: In the tests described in the tables below, the herbicides were formulated and used in granular form in conventional manner. […] The commercial herbicide used was a granular product having 5% active ingredient.
In the field tests of the herbicide of this invention with transplanted rice, the rice seedlings were grown in conventional manner, by seeding the rice in a typical seedbed of sandy loam to clay soil of the country wherein the test was conducted. For laboratory and greenhouse work the seedlings were obtained by seeding rice in a mixture of soil, e.g., Ray silt loam, and peat in wood flats. For purposes of testing the herbicides on younger rice seedlings (infant or Dapog) the rice was usually allowed to grow for 6-15 days before lifting for transplanting. Older (ordinary) rice plants were usually grown for a period of about 2-3 weeks, or as much as about 7 weeks before lifting. Since the period of growth is dependent upon climatic conditions, a better measure of when to transplant the rice seedling is the leaf stage of growth; for infant or Dapog rice the seedling is lifted at the 1.5-2 leaf stage of growth, and for ordinary seedlings at the 2.5-5 leaf stage. The seedlings were then transplanted to the test plots for evaluation of the herbicide for injury against weed species present with the transplanted rice. The herbicides were then applied to the growth medium of the weeds and transplant rice, either preemergent or postemergent with respect to the weeds and postemergent with respect to the transplanted rice. […] Application rates given in the tables refer to the amount of active ingredient used.
(§4) Rice seedlings (ordinary) of Tainan No. 5 variety (japonica) were transplanted at 19 days of growth. Granular formulations of Herbicides A and B were applied at the 1 leaf stage of grass weed (4 DAT) and 2.5 leaf stage of grass weed (10 DAT).

[3] = system: Grass: Ec and Ecol (Echinochloa crusgalli, Echinochloa colonum); assay: Example 3 field test on Dapog rice, weed control, Munoz, Philippines; conditions: obs. 42 DAT
Description: (§1) Treatments were replicated four times.

[4] = system: Sedges: Cd, Ci, Fl (Cyperus difformis, Cyperus iria, Fimbristylis littoralis); assay: as above; conditions: obs. 42 DAT
Description: as §1

[5] = system: Cs (Cyperus serotinus); assay: Example 6 weed control, JAAPR, Japan; conditions: Normal season
Procedure: (§2) In this example, the efficacy of Herbicide A is presented for a variety of weeds in the presence of ordinary and infant transplant rice. In this example, tests were conducted at the said JAAPR Lab at different times of the year. "Early season" transplants were made in April and "Normal season" transplants were made in July. The size of the transplants at the respective seasons were: Season Seedling Type Plant Height (cm) Leaf Stage ______________________________________ Early Ordinary 16.5 4.5 Early Infant 9.1 2.4 Normal Ordinary 41.7 5.3 Normal Infant 14.7 1.9 ______________________________________
(§3) Duplicate treatments were used. At the time of application of the herbicide, the status of the grass (EC) was as follows: […]

[6] = system: Lp (Lindernia pyxidaria); assay: Example 6 weed control, JAAPR, Japan
Procedure: as §2, §3

[7] = system: Sh (Scirpus hotarui); assay: Example 6 weed control, JAAPR, Japan; conditions: Normal season
Procedure: as §2, §3

[8] = system: transplanted rice seedlings; assay: Example 6 rice seedling injury
Procedure: as §2, §3

[9] = system: carp; assay: Example 10 fish toxicity, Japanese protocol
Procedure: In view of the importance of fish toxicological considerations, tests were conducted, using carp according to the Japanese protocol, to compare toxicity data for Herbicides A and B; results of those tests are shown in Table 10.

[10] = system: Echinochloa crusgalli and Monochoria vaginalis; assay: Example 2 field test, overall
Description: as §4

[11] = Early season, ordinary, 1.0 kg/ha, 3 DAT
[12] = Early season, ordinary, 1.0 kg/ha, 12 DAT
[13] = Early season, ordinary, 1.0 kg/ha, -2 DAT
[14] = Early season, ordinary, .5 kg/ha, 3 DAT
[15] = Early season, ordinary, .5 kg/ha, 12 DAT
[16] = Early season, ordinary, .5 kg/ha, -2 DAT
[17] = Normal season, infant, 1.0 kg/ha, 3 DAT
[18] = Normal season, infant, 1.0 kg/ha, 7 DAT
[19] = Normal season, infant, 1.0 kg/ha, -2 DAT
[20] = Normal season, infant, .5 kg/ha, 3 DAT
[21] = Normal season, infant, .5 kg/ha, 7 DAT
[22] = Normal season, infant, .5 kg/ha, -2 DAT
[23] = Normal season, ordinary, 1.0 kg/ha, 3 DAT
[24] = Normal season, ordinary, 1.0 kg/ha, 7 DAT
[25] = Normal season, ordinary, 1.0 kg/ha, -2 DAT
[26] = Normal season, ordinary, .5 kg/ha, 3 DAT
[27] = Normal season, ordinary, .5 kg/ha, 7 DAT
[28] = Normal season, ordinary, .5 kg/ha, -2 DAT

With CCCCOCN(C(=O)CCl)c1c(C)cccc1C(C)(C)C [Herbicide A, n-(butoxymethyl)-6'-tert-butyl-2-chloro-o-acetotoluidide] the “% Weed Control (Perennials Ek and Sa)” value ([1]; 5 DAT, 1.0 kg/ha) was 68%, the “% Weed Control (Perennials Ek and Sa)” value ([1]; 5 DAT, 2.0 kg/ha) was 100% and the “% Weed Control (Perennials Ek and Sa)” value ([1]; 5 DAT, .25 kg/ha) was 0%. For the same compound, the “% Weed Control (Perennials Ek and Sa)” value ([1]; 5 DAT, .5 kg/ha) was 55%, the “% Weed Control (Perennials Ek and Sa)” value ([1]; 10 DAT, 1.0 kg/ha) was 0% and the “% Weed Control (Perennials Ek and Sa)” value ([1]; 10 DAT, 2.0 kg/ha) was 0%. The “% Weed Control (Perennials Ek and Sa)” value ([1]; 10 DAT, .25 kg/ha) was 0%, the “% Weed Control (Perennials Ek and Sa)” value ([1]; 10 DAT, .5 kg/ha) was 2% and the perennial control ([1]; at 14 DAT and at rates less than 2 kgs/ha applied 5 DAT) was “less than adequate”. The “% Weed Control (Echinochloa crusgalli)” value ([2]; 4 DAT, 1.0 kg/ha) was 100%, the “% Weed Control (Echinochloa crusgalli)” value ([2]; 4 DAT, 2.0 kg/ha) was 100% and the “% Weed Control (Echinochloa crusgalli)” value ([2]; 4 DAT, .25 kg/ha) was 85%. For the same compound, the “% Weed Control (Echinochloa crusgalli)” value ([2]; 4 DAT, .5 kg/ha) was 98%, the “% Weed Control (Echinochloa crusgalli)” value ([2]; 10 DAT, 1.0 kg/ha) was 100% and the “% Weed Control (Echinochloa crusgalli)” value ([2]; 10 DAT, 2.0 kg/ha) was 100%. The “% Weed Control (Echinochloa crusgalli)” value ([2]; 10 DAT, .25 kg/ha) was 65%, the “% Weed Control (Echinochloa crusgalli)” value ([2]; 10 DAT, .5 kg/ha) was 95% and the “% Weed control, Grass (Ec and Ecol)” value ([3]; 5 DAT, 1.0 kg/ha) was 100%. The “% Weed control, Grass (Ec and Ecol)” value ([3]; 5 DAT, 2.0 kg/ha) was 100%, the “% Weed control, Grass (Ec and Ecol)” value ([3]; 5 DAT, .25 kg/ha) was 100% and the “% Weed control, Grass (Ec and Ecol)” value ([3]; 5 DAT, .5 kg/ha) was 100%. The “% Weed control, Grass (Ec and Ecol)” value ([3]; 14 DAT, 1.0 kg/ha) was 50%, the “% Weed control, Grass (Ec and Ecol)” value ([3]; 14 DAT, 2.0 kg/ha) was 90% and the “% Weed control, Grass (Ec and Ecol)” value ([3]; 14 DAT, .25 kg/ha) was 0%. For the same compound, the “% Weed control, Grass (Ec and Ecol)” value ([3]; 14 DAT, .5 kg/ha) was 50%, the “% Weed control, Sedges (Cd, Ci, Fl)” value ([4]; 5 DAT, 1.0 kg/ha) was 100% and the “% Weed control, Sedges (Cd, Ci, Fl)” value ([4]; 5 DAT, 2.0 kg/ha) was 100%. For the same compound, the “% Weed control, Sedges (Cd, Ci, Fl)” value ([4]; 5 DAT, .25 kg/ha) was 100%, the “% Weed control, Sedges (Cd, Ci, Fl)” value ([4]; 5 DAT, .5 kg/ha) was 100% and the “% Weed control, Sedges (Cd, Ci, Fl)” value ([4]; 14 DAT, 1.0 kg/ha) was 70%. The “% Weed control, Sedges (Cd, Ci, Fl)” value ([4]; 14 DAT, 2.0 kg/ha) was 70%, the “% Weed control, Sedges (Cd, Ci, Fl)” value ([4]; 14 DAT, .25 kg/ha) was 0% and the “% Weed control, Sedges (Cd, Ci, Fl)” value ([4]; 14 DAT, .5 kg/ha) was 70%. The “% Weed Control (Cs)” value ([5]; infant, 1.0 kg/ha, 3 DAT) was 100%, the “% Weed Control (Cs)” value ([5]; infant, 1.0 kg/ha, 7 DAT) was 100% and the “% Weed Control (Cs)” value ([5]; infant, 1.0 kg/ha, -2 DAT) was 100%. The “% Weed Control (Cs)” value ([5]; infant, .5 kg/ha, 3 DAT) was 100%, the “% Weed Control (Cs)” value ([5]; infant, .5 kg/ha, 7 DAT) was 100% and the “% Weed Control (Cs)” value ([5]; infant, .5 kg/ha, -2 DAT) was 100%. For the same compound, the “% Weed Control (Cs)” value ([5]; ordinary, 1.0 kg/ha, 3 DAT) was 100%, the “% Weed Control (Cs)” value ([5]; ordinary, 1.0 kg/ha, 7 DAT) was 100% and the “% Weed Control (Cs)” value ([5]; ordinary, 1.0 kg/ha, -2 DAT) was 100%. The “% Weed Control (Cs)” value ([5]; ordinary, .5 kg/ha, 3 DAT) was 100%, the “% Weed Control (Cs)” value ([5]; ordinary, .5 kg/ha, 7 DAT) was 100% and the “% Weed Control (Cs)” value ([5]; ordinary, .5 kg/ha, -2 DAT) was 100%. The “% Weed Control (Lp)” value [6, 11] was 100%, the “% Weed Control (Lp)” value [6, 12] was 95% and the “% Weed Control (Lp)” value [6, 13] was 100%. For the same compound, the “% Weed Control (Lp)” value [6, 14] was 100%, the “% Weed Control (Lp)” value [6, 15] was 85% and the “% Weed Control (Lp)” value [6, 16] was 100%. The “% Weed Control (Lp)” value [6, 17] was 100%, the “% Weed Control (Lp)” value [6, 18] was 100% and the “% Weed Control (Lp)” value [6, 19] was 100%. For the same compound, the “% Weed Control (Lp)” value [6, 20] was 100%, the “% Weed Control (Lp)” value [6, 21] was 100% and the “% Weed Control (Lp)” value [6, 22] was 100%. The “% Weed Control (Lp)” value [6, 23] was 100%, the “% Weed Control (Lp)” value [6, 24] was 100% and the “% Weed Control (Lp)” value [6, 25] was 100%. The “% Weed Control (Lp)” value [6, 26] was 100%, the “% Weed Control (Lp)” value [6, 27] was 100% and the “% Weed Control (Lp)” value [6, 28] was 100%. The “% Weed Control (Sh)” value ([7]; infant, 1.0 kg/ha, 3 DAT) was 100%, the “% Weed Control (Sh)” value ([7]; infant, 1.0 kg/ha, 7 DAT) was 100% and the “% Weed Control (Sh)” value ([7]; infant, 1.0 kg/ha, -2 DAT) was 100%. The “% Weed Control (Sh)” value ([7]; infant, .5 kg/ha, 3 DAT) was 100%, the “% Weed Control (Sh)” value ([7]; infant, .5 kg/ha, 7 DAT) was 100% and the “% Weed Control (Sh)” value ([7]; infant, .5 kg/ha, -2 DAT) was 100%. The “% Weed Control (Sh)” value ([7]; ordinary, 1.0 kg/ha, 3 DAT) was 100%, the “% Weed Control (Sh)” value ([7]; ordinary, 1.0 kg/ha, 7 DAT) was 100% and the “% Weed Control (Sh)” value ([7]; ordinary, 1.0 kg/ha, -2 DAT) was 100%. The “% Weed Control (Sh)” value ([7]; ordinary, .5 kg/ha, 3 DAT) was 100%, the “% Weed Control (Sh)” value ([7]; ordinary, .5 kg/ha, 7 DAT) was 100% and the “% Weed Control (Sh)” value ([7]; ordinary, .5 kg/ha, -2 DAT) was 100%. For the same compound, the “Rice Seedling Injury (%)” value [8, 11] was 5%, the “Rice Seedling Injury (%)” value [8, 12] was 0% and the “Rice Seedling Injury (%)” value [8, 13] was 10%. For the same compound, the “Rice Seedling Injury (%)” value [8, 14] was 0%, the “Rice Seedling Injury (%)” value [8, 15] was 0% and the “Rice Seedling Injury (%)” value [8, 16] was 10%. For the same compound, the “Rice Seedling Injury (%)” value [8, 17] was 20%, the “Rice Seedling Injury (%)” value [8, 18] was 10% and the “Rice Seedling Injury (%)” value [8, 19] was 40%. The “Rice Seedling Injury (%)” value [8, 20] was 15%, the “Rice Seedling Injury (%)” value [8, 21] was 10% and the “Rice Seedling Injury (%)” value [8, 22] was 20%. For the same compound, the “Rice Seedling Injury (%)” value [8, 23] was 15%, the “Rice Seedling Injury (%)” value [8, 24] was 10% and the “Rice Seedling Injury (%)” value [8, 25] was 30%. For the same compound, the “Rice Seedling Injury (%)” value [8, 26] was 15%, the “Rice Seedling Injury (%)” value [8, 27] was 5% and the “Rice Seedling Injury (%)” value [8, 28] was 25%. For the same compound, the “rice toxicity, infant vs ordinary seedlings” value ([8]; infant vs ordinary) was “No difference”, the “rice toxicity, preemergence vs later treatments” value ([8]; preemergence treatments vs later) was “somewhat more toxic to rice” and the “toxicity to carp relative to Herbicide B” value ([9]; equal concentration basis) was “about one-half”. The “toxicity in the field relative to Herbicide B” value ([9]; taking expected use rate one-third of B) was “about one-sixth”, the “period of application vs Herbicide B” value ([10]; Example 2) was “could be applied over a longer period of time” and the “fold more active than Herbicide B” value ([10]; control of Echinochloa crusgalli and Monochoria vaginalis) was 3-6 fold.
